This note sets out measurements from patent US7999136B2 (priority 2007, dated 2011).

Where only a bound is given, the exact number is not on record here.

The subject of assay [1] is Erysiphe graminis f. sp. tritici. Nature of the assay: Test of preventive effect on wheat powdery mildew. Type of assay: in vivo. The following applies: wheat (Shirogane), foliage application 500 ppm, 7 days after inoculation. The protocol:
(§1) The controlling effect was evaluated by visually observing the area or lesion spots on each of test plants at the time of investigation and comparing the area of lesion spots on a plant treated with the present compound with that on an untreated plant.
Test of Preventive Effect on Wheat Powdery Mildew (Erysiphe graminis f. sp. tritici)
Each of plastic pots was filled with sandy loam and sown with wheat (cultivar: Shirogane), followed by growing in a greenhouse for 10 days. The present compound 8 was formulated into a flowable formulation according to Formulation Example 6. The flowable formulation was diluted to a predetermined concentration (500 ppm) with water, and foliage application of the dilution was carried out so that the dilution adhered sufficiently to the surfaces of leaves of the grown wheat young seedling. After the foliage application, the plant was air-dried and then inoculated by sprinkling with spores of Erysiphe graminis f. sp. tritici. After the inoculation, the plant was held in a greenhouse at 23° C. for 7 days and the area of lesion spots was investigated.

Assay [2] deals with Puccinia recondita f. sp. tritici. Nature of the assay: Test of curative effect on wheat leaf rust. Type of assay: in vivo. As to conditions: wheat (Shirogane), foliage application 500 ppm, curative (1 day after inoculation), 6 days after application. The protocol:
as §1
Test of Curative Effect on Wheat Leaf Rust (Puccinia recondita f. sp. tritici)
Each of plastic pots was filled with sandy loam and sown with wheat (cultivar: Shirogane), followed by growing in a greenhouse for 9 days. The plant was inoculated by sprinkling with spores of Puccinia recondita f. sp. tritici. After the inoculation, the plant was held under darkness and high humidity conditions at 23° C. for 1 day and then air-dried to give a seedling infected with Puccinia recondita f. sp. tritici. The present compound 10 was formulated into a flowable formulation according to Formulation Example 6. The flowable formulation was diluted to a predetermined concentration (500 ppm) with water, and foliage application of the dilution was carried out so that the dilution adhered sufficiently to the surfaces of leaves of the above plant. After the foliage application, the plant was air-dried and held under lighting conditions for 6 days, and then the area of lesions was investigated.

In the case of `C#CCOc1cc(F)c(C(=O)NCC2CCCCC2)cc1F` [compound 8], in assay [1], the “area of lesion spots on the treated plant relative to that on an untreated plant” value is no more than 30%.

In the case of `C#CCOc1cc(F)c(C(=O)NC(C)C(C)C)cc1F` (centres unmarked) [compound 10], the “area of lesion spots on the treated plant relative to that on an untreated plant” value in assay [2] was no more than 30%.
